Entries after “also recorded” stand apart in the source; their conditions may differ.
Tests used:
D816V Kit = target: T1, D816V Kit (Homo sapiens, UniProt P10721, D816V); assay: Kit D816V assay at Km (Caliper electrophoretic mobility shift); format: biochemical; details: 15 uM ATP, 25 C, 90 minutes
T1 construct: purchased Carna Bioscience 08-156
Outline: (§1)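 Read-out is the ratio of phosphorylated to unphosphorylated fluorescent peptide, resolved by mobility shift on a Caliper EZ Reader 2.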

wild type Kit = target: T2, wild type Kit (Homo sapiens, UniProt P10721); assay: Kit wild type assay at Km (Caliper electrophoretic mobility shift); format: biochemical; details: 400 uM ATP, 25 C, 90 minutes; read-out: WT KIT
T2 construct: purchased Carna Bioscience 08-156
Outline: as §1

PDGFRA D842V = target: T3, PDGFRA D842V (Homo sapiens, UniProt P16234, D842V); assay: PDGFRA D842V assay at Km (Caliper electrophoretic mobility shift); format: biochemical; details: 15 uM ATP, 25 C, 90 minutes; read-out: PDFGRA D842V
T3 construct: purchased ProQinase 0761-0000-1
Description: In order to assess the activity of chemical compounds against the relevant kinase of interest, the Caliper LifeSciences electrophoretic mobility shift technology platform is used. Fluorescently labeled substrate peptide is incubated in the presence of kinase and ATP so that a […] proportion of the peptide is phosphorylated. At the end of the reaction, the mix of phosphorylated (product) and non-phosphorylated (substrate) peptides are passed through the microfluidic system of the Caliper EZ Reader 2, under an applied potential difference. The presence of the phosphate group on the product peptide provides a difference in mass and charge between those of the substrate peptide, resulting in a separation of the substrate and product pools in the sample. As the pools pass a LEDS within the instrument, these pools are detected and resolved as separate peaks. The ratio between these peaks therefore reflects the activity of the chemical matter at that concentration in that well, under those conditions.
The reaction was stopped by the addition of 70 ul of Stop buffer (100 mM HEPES pH 7.5, 0.015% Brij 35, 35 mM EDTA and 0.2% of Coating Reagent 3 (Caliper Lifesciences)). The plate was then read on a Caliper EZReader 2 (protocol settings: −1.9 psi, upstream voltage −500, downstream voltage −3000, post sample sip 38 s).

[1] = target: T4, Kit D816V (HMC1.2 cells, Kit V560G and D816V) (Homo sapiens, UniProt P10721, D816V/V560G); assay: HMC1.2 autophosphorylation assay (AlphaLISA, phospho-Y719 c-Kit); format: cell-based; details: Kit autophosphorylation at tyrosine 719, 90 minutes, read-out: Cellular Activity
T4 construct: endogenous in cells; host or cells: HMC1.2 cells
Outline: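 AlphaScreen signal comes from lysed HMC1.2 cells incubated with phospho-Y719 and total c-Kit antibodies (15 nM final), acceptor beads and then streptavidin donor beads, 2 h each at room temperature. Beforehand, cells deprived of serum overnight received compound for 90 min as a 10-point series, 25 uM–95.4 pM, 0.25% DMSO.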

P815 tumor cells = assay: P815 mastocytoma xenograft model; format: in vivo, mouse; details: female BALB/c nude mice, P815 s.c., p.o. BID x 10
Description: Compound 165 and Dasatinib were evaluated in a P815 mastocytoma xenograft model. P815 tumor cells (ATCC, Manassas, Va., cat # ATCC® TIB-64) were maintained in vitro as a suspension and monolayer culture in RPMI1640 medium supplemented with 10% fetal calf serum at 37° C. in an atmosphere of 5% CO2 in air. The tumor cells were sub-cultured twice weekly by trypsin-EDTA treatment. The cells growing in an exponential growth phase were harvested and counted for tumor inoculation.
Tumor sizes were measured every other day in two dimensions using a caliper, and the volume was expressed in mm^3 using the formula: V=0.5 a×b^2 where a and b were the long and short diameters of the tumor, respectively. […] T-C was calculated with T as the median time (in days) required for the treatment group tumors to reach a predetermined size (e.g., 1000 mm^3), and C as the median time (in days) for the control group tumors to reach the same size. […]
TGI was calculated for each group using the formula: TGI (%)=[1−(Ti−T0)/(Vi−V0)]×100; Ti is the average tumor volume of a treatment group on a given day, T0 is the average tumor volume of the treatment group on the day of treatment start, Vi is the average tumor volume of the vehicle control group on the same day with Ti, and V0 is the average tumor volume of the vehicle group on the day of treatment start. Tumor weight was measured at the endpoint. […]

T2 sequence (P10721 26-976): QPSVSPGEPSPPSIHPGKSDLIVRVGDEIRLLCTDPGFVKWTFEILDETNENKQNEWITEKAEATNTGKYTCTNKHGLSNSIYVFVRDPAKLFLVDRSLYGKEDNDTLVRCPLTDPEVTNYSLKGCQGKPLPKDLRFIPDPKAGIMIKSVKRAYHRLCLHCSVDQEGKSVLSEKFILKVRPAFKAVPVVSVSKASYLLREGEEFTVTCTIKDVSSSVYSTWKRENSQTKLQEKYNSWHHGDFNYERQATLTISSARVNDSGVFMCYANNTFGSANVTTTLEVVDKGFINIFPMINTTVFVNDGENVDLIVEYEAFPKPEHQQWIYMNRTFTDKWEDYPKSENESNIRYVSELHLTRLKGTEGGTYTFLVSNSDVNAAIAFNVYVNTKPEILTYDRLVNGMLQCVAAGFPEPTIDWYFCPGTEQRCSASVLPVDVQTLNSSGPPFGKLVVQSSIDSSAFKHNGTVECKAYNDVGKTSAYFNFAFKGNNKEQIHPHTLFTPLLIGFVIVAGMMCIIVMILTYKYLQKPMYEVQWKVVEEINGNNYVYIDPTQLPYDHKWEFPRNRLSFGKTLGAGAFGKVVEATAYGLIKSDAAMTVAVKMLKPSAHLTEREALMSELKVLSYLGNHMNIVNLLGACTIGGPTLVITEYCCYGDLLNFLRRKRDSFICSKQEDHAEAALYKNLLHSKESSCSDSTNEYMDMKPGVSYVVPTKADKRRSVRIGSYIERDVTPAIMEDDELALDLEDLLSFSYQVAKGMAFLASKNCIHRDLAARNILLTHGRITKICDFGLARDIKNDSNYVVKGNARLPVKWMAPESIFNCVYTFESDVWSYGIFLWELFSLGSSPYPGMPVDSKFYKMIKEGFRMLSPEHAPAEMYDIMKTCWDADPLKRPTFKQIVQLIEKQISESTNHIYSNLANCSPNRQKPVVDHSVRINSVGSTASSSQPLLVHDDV
T3 sequence (P16234 24-1089 D842V): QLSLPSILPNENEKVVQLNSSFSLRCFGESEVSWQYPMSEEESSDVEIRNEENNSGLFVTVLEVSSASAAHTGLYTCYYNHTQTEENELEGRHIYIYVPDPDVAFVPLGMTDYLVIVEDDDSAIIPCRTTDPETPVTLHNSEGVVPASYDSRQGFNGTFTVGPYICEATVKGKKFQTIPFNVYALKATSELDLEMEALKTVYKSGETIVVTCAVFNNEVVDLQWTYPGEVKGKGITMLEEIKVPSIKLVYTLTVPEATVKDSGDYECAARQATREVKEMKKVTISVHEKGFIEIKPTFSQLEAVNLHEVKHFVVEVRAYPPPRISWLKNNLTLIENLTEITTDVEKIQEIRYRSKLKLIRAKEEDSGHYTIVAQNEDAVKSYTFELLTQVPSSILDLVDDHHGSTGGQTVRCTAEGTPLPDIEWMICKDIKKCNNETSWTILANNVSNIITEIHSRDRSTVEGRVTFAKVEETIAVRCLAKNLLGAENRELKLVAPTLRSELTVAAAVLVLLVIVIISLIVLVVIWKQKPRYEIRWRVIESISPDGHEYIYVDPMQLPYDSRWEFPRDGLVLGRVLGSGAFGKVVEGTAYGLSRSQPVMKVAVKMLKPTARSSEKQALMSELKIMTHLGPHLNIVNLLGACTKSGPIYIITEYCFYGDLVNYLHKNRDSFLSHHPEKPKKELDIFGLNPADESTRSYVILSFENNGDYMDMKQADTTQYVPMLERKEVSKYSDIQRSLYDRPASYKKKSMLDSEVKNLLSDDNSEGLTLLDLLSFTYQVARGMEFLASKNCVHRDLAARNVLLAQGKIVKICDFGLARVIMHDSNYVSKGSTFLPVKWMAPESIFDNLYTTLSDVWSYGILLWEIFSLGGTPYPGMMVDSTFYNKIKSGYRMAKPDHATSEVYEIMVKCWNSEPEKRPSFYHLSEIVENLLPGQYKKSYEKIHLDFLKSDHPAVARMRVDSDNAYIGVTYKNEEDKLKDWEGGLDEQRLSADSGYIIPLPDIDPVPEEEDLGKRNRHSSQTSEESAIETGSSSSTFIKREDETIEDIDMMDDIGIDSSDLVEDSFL
T4 sequence (P10721 26-976 V560G/D816V): as the sequence (P10721 26-976) above, with V535G, D791V counted along it
T1 sequence (P10721 26-976 D816V): as the sequence (P10721 26-976) above, with D791V counted along it

Structure (SMILES) | IC50 (D816V Kit) [nM] | IC50 (wild type Kit) [nM] | IC50 (PDGFRA D842V) [nM] | IC50 [1] [nM] | tumor growth inhibition / antitumor activity (P815 tumor cells)
O[C@@H]1CCCN(c2ccc(Nc3ncnc(N4CCN(c5ncc(Cc6ccccc6)cn5)CC4)n3)cc2)C1 [Compound 165] | 1.01 to 10 | 100 to 1000 | 1.01 to 10 | 10 to 100 | effective in inhibiting tumor growth; also recorded: observable antitumor activity
Oc1nc(N2CCN(c3ncnc(Nc4cnn(CC5CCNCC5)c4)n3)CC2)ncc1Cc1ccccc1 [Compound 179] | < 1 | < 10 | < 1 | 1000 to 10000 | 
OC1CCC(NCc2cccc(Nc3ncnc(N4CCN(c5ncc(Cc6ccccc6)cn5)CC4)n3)c2)C1 (stereo not drawn) [Compound 214] | < 1 | 11 to 100 | < 1 | 10 to 100 | 
CN(C)C1CCN(Cc2cccc(Nc3ncnc(N4CCN(c5ncc(Cc6ccccc6)cn5)CC4)n3)c2)C1 (stereo not drawn) [Compound 259] | < 1 | < 10 | < 1 | 10 to 100 | 
CN(C)[C@@H]1CCN(Cc2cccc(Nc3ncnc(N4CCN(c5ncc(Cc6ccccc6)cn5)CC4)n3)c2)C1 [Compound 261] | < 1 | < 10 | < 1 | 10 to 100 | 

From patent publication US9334263B2, “Compositions useful for treating disorders related to kit” (BLUEPRINT MEDICINES CORPORATION, priority 2013, dated 2016)
